Assay: xn = mol fraction of the nth substance listed
Settings: 100 kPa

CCCn1cc[n+](C)c1C.O=S(=O)([N-]S(=O)(=O)C(F)(F)F)C(F)(F)F + O=C1CCCO1
electrical conductivity [S/m]
Settings | 293.15 K | 298.15 K | 303.15 K | 308.15 K | 313.15 K | 318.15 K | 323.15 K
x2 = 0 | 0.196 | – | 0.338 | 0.417 | 0.503 | 0.59 | 0.687
x2 = 0.1289 | 0.24 | 0.312 | – | 0.479 | 0.578 | 0.678 | 0.788
x2 = 0.2006 | – | 0.351 | 0.444 | – | 0.65 | 0.759 | –
x2 = 0.3027 | 0.343 | 0.428 | 0.537 | 0.646 | 0.779 | 0.907 | 1.02
x2 = 0.3969 | 0.451 | 0.539 | 0.657 | 0.789 | 0.935 | 1.09 | 1.23
x2 = 0.4952 | 0.593 | 0.708 | 0.844 | 0.995 | 1.16 | – | 1.46
x2 = 0.5969 | 0.797 | 0.927 | 1.07 | 1.21 | 1.38 | 1.54 | 1.7
x2 = 0.6992 | – | 1.13 | 1.27 | – | – | 1.74 | 1.92
x2 = 0.8002 | – | 1.31 | 1.45 | 1.59 | 1.73 | – | 2.07
x2 = 0.8508 | 1.25 | 1.38 | – | 1.63 | – | 1.91 | 2.06
x2 = 0.8999 | – | 1.32 | 1.44 | 1.55 | – | 1.81 | 1.94
x2 = 0.9495 | 0.875 | 0.954 | 1.03 | – | 1.2 | 1.29 | 1.39

O=C1CCCCO1 + CCCC[n+]1ccn(C)c1.O=S(=O)([N-]S(=O)(=O)C(F)(F)F)C(F)(F)F
electrical conductivity [S/m]
Settings | 293.15 K | 298.15 K | 303.15 K | 308.15 K | 313.15 K | 318.15 K | 323.15 K
x2 = 0.0532 | 0.167 | 0.18 | 0.195 | – | 0.225 | 0.244 | –
x2 = 0.1004 | 0.395 | – | – | – | 0.553 | 0.595 | 0.636
x2 = 0.1504 | – | 0.658 | – | 0.779 | 0.848 | 0.924 | –
x2 = 0.1999 | 0.655 | 0.725 | 0.797 | 0.87 | 0.952 | – | –
x2 = 0.2988 | 0.67 | 0.744 | 0.822 | – | 0.984 | 1.07 | 1.16
x2 = 0.4006 | – | – | 0.741 | 0.818 | 0.905 | 0.99 | 1.08
x2 = 0.5005 | 0.522 | – | 0.669 | 0.749 | 0.827 | 0.92 | 1.01
x2 = 0.5999 | 0.411 | – | 0.559 | 0.637 | 0.72 | 0.815 | 0.928
x2 = 0.7214 | 0.385 | 0.453 | 0.532 | – | 0.697 | 0.789 | –
x2 = 0.8475 | – | 0.418 | 0.495 | 0.575 | 0.658 | 0.754 | 0.858
x2 = 0.9003 | 0.34 | 0.412 | 0.484 | 0.563 | 0.646 | 0.745 | 0.846

CCCC[n+]1ccn(C)c1.O=S(=O)([N-]S(=O)(=O)C(F)(F)F)C(F)(F)F + O=C1CCCO1
x2 = 0
Settings | electrical conductivity [S/m] | viscosity [mPa·s]
293.15 K | 0.337 | 62.1
308.15 K | 0.552 | 33.65
313.15 K | 0.64 | 28.28
318.15 K | 0.733 | 23.91
323.15 K | 0.835 | 20.64

From a compilation of properties of binary mixtures (doi:10.2298/jsc190413047v)
